In PubChem BioAssay (NCI):
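In this assay, cells in 96-well plates receive the compound at five concentrations for 48 hours. Endpoints are linearly interpolated between the surrounding concentrations. TGI: total growth inhibition.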 Where a SMILES comes first, the peptide text is derived from it. Bridges are numbered along the chain shown (N, C = ends). [ ]: non-standard residue; d: D form. The star is where a group is joined. Fmoc = O=C(OCC1c2ccccc2-c2ccccc21)*; Aib = CC(C)(N)C(=O)O; OtBu = CC(C)(C)O*; βAla = NCCC(=O)O

Key:
Test in all cases: NCI tumour cell line growth inhibition, 48 h
SK-MEL-5 melanoma = tested on: SK-MEL-5 melanoma
IGROV1 ovarian = tested on: IGROV1 ovarian
NCI-H23 lung = tested on: NCI-H23 lung
NCI-H460 lung = tested on: NCI-H460 lung
CCRF-CEM leukemia = tested on: CCRF-CEM leukemia
DU-145 prostate = tested on: DU-145 prostate
OVCAR-5 ovarian = tested on: OVCAR-5 ovarian
CAKI-1 renal = tested on: CAKI-1 renal
KM12 colon = tested on: KM12 colon
MDA-MB-231 breast = tested on: MDA-MB-231 breast
SF-539 CNS = tested on: SF-539 CNS
UACC-62 melanoma = tested on: UACC-62 melanoma

Compound	TGI (SK-MEL-5 melanoma)	TGI (IGROV1 ovarian)	TGI (NCI-H23 lung)	TGI (NCI-H460 lung)	TGI (CCRF-CEM leukemia)	TGI (DU-145 prostate)	TGI (OVCAR-5 ovarian)	TGI (CAKI-1 renal)	TGI (KM12 colon)	TGI (MDA-MB-231 breast)	TGI (SF-539 CNS)	TGI (UACC-62 melanoma)
Cc1cc(NC2=CC(=O)C(=O)c3ccccc32)no1	6.57 µM	21.8 µM	39.8 µM	23.3 µM	40.9 µM	30.1 µM	18.1 µM	17.1 µM	29.7 µM	> 67.2 µM	13.4 µM	9.27 µM
CN(C)C(C1=C(O)C(c2ccccc2)N(c2ccccc2)C1=O)N1CCOCC1 (stereo unspecified)	> 10 µM	> 10 µM	> 10 µM	> 10 µM	> 10 µM	> 10 µM	> 10 µM	> 10 µM	> 10 µM	> 10 µM	> 10 µM	> 10 µM
COc1ccc(N=c2oc3ccccc3cc2C(N)=O)cc1	> 100 µM	> 100 µM	> 100 µM	> 100 µM	> 100 µM	> 100 µM	–	32.4 µM	> 100 µM	> 100 µM	63.6 µM	> 100 µM
Cc1ccc(CC(Cc2ccccc2C)C(=O)O)c(C(=O)O)c1 (stereo unspecified)	> 100 µM	> 100 µM	> 100 µM	> 100 µM	> 100 µM	> 100 µM	> 100 µM	> 100 µM	> 100 µM	> 100 µM	> 100 µM	–
COc1cc2c(cc1OC)OC(c1c(OC)ccc(OC)c1O)CC2 (stereo unspecified)	> 100 µM	> 100 µM	> 100 µM	> 100 µM	77.8 µM	> 100 µM	> 100 µM	> 100 µM	> 100 µM	> 100 µM	> 100 µM	> 100 µM
N#CC(c1ccccc1)N(CCCCCCN(C(=O)c1ccccc1)C(C#N)c1ccccc1)C(=O)c1ccccc1 (stereo unspecified)	32.9 µM	> 100 µM	73.8 µM	84.2 µM	> 100 µM	> 100 µM	> 100 µM	> 100 µM	> 100 µM	> 100 µM	> 100 µM	77.7 µM
CSc1ncnc2c1ncn2CCC(=O)O	> 100 µM	> 100 µM	> 100 µM	> 100 µM	> 100 µM	> 100 µM	> 100 µM	> 100 µM	> 100 µM	> 100 µM	> 100 µM	> 100 µM
CCOc1cc(C2CC(c3ccc(NS(=O)(=O)c4cc([N+](=O)[O-])ccc4C)cc3)=NN2S(=O)(=O)c2cc([N+](=O)[O-])ccc2C)ccc1O (stereo unspecified)	64.8 µM	> 100 µM	> 100 µM	–	> 100 µM	> 100 µM	> 100 µM	> 100 µM	> 100 µM	> 100 µM	> 100 µM	–
CC(C)C(NC(=O)OCC1c2ccccc2-c2ccccc21)C(=O)NC(CCC(=O)OC(C)(C)C)C(=O)OC(C)(C)C (stereo unspecified) (Fmoc-Val-Glu(OtBu)-OtBu; configuration not given here)	> 100 µM	> 100 µM	> 100 µM	> 100 µM	> 100 µM	> 100 µM	> 100 µM	> 100 µM	> 100 µM	> 100 µM	> 92 µM	> 100 µM
Cc1cc(S(=O)(=O)NC2=NCc3nc4ccccc4n32)c(S)cc1Cl	32.1 µM	69.7 µM	–	82.4 µM	86.6 µM	> 100 µM	65.1 µM	> 100 µM	38 µM	55.9 µM	42.7 µM	33.3 µM
CC1=NN(c2nc(N)nc(CN3CCOCC3)n2)C(C)(C)C1	> 100 µM	37.2 µM	> 100 µM	> 100 µM	90.8 µM	> 100 µM	> 100 µM	40.1 µM	> 100 µM	> 100 µM	> 100 µM	> 100 µM
Cc1ccc2c(=O)cc(-c3sccc3C)[nH]c2n1	3.88 µM	> 96 µM	–	> 79.8 µM	> 24.4 µM	> 67.3 µM	> 100 µM	> 100 µM	> 59.5 µM	> 43.4 µM	1.79 µM	> 72 µM
COc1ccc(S(=O)(=O)N2C(=O)CCC2C(=O)NC(N)=O)cc1 (stereo unspecified)	> 100 µM	> 100 µM	> 100 µM	> 100 µM	> 100 µM	> 100 µM	> 100 µM	> 100 µM	> 100 µM	> 100 µM	> 100 µM	> 100 µM
COc1ccc(C(=O)C#Cc2cn(C3CC(O)C(CO)O3)c(=O)[nH]c2=O)cc1 (stereo unspecified)	> 100 µM	> 100 µM	> 100 µM	> 100 µM	> 10 µM	> 100 µM	–	> 100 µM	> 100 µM	> 100 µM	45.1 µM	> 100 µM
NC1N=C(c2ccc(Cl)cc2)C2=C(N1)c1ccccc1CC2 (stereo unspecified)	> 56.3 µM	> 57.1 µM	> 100 µM	> 100 µM	> 100 µM	> 100 µM	> 100 µM	> 100 µM	> 67 µM	> 100 µM	> 100 µM	> 100 µM
Cc1ccc(CC2(C(=O)O)Cc3ccc(C)cc3C2)cc1 (stereo unspecified)	> 100 µM	> 100 µM	> 100 µM	> 100 µM	> 100 µM	> 100 µM	> 100 µM	> 100 µM	> 100 µM	> 100 µM	> 100 µM	> 100 µM
CCN1CCC(O)(c2ccc(Oc3ccc(Cl)cc3)cc2)C(C(=O)c2ccc(Oc3ccc(Cl)cc3)cc2)C1 (stereo unspecified)	24.7 µM	23.5 µM	25.7 µM	14.9 µM	20.9 µM	34.3 µM	26.4 µM	27.3 µM	14.9 µM	29.4 µM	30.3 µM	24.8 µM
CCOCCOCCOCc1nc(C#N)c(N)o1	> 100 µM	> 100 µM	> 100 µM	> 100 µM	> 100 µM	> 100 µM	> 100 µM	> 100 µM	> 100 µM	> 100 µM	> 100 µM	> 100 µM

Compound	TGI (SK-MEL-5 melanoma)	TGI (IGROV1 ovarian)	TGI (NCI-H23 lung)	TGI (NCI-H460 lung)	TGI (CCRF-CEM leukemia)	TGI (DU-145 prostate)	TGI (OVCAR-5 ovarian)	TGI (CAKI-1 renal)	TGI (KM12 colon)	TGI (MDA-MB-231 breast)	TGI (SF-539 CNS)	TGI (UACC-62 melanoma)
N#Cc1ccc(C(O)C(F)(F)c2nc3ccccc3o2)cc1 (stereo unspecified)	> 100 µM	> 100 µM	> 100 µM	> 100 µM	> 100 µM	> 100 µM	–	> 100 µM	> 100 µM	> 100 µM	> 100 µM	> 100 µM
O=C(O)c1ccccc1C(=O)NCC1S(=O)(=O)OCCOS1(=O)=O	> 100 µM	> 100 µM	> 100 µM	> 100 µM	> 100 µM	> 100 µM	> 100 µM	> 100 µM	–	> 100 µM	> 100 µM	> 100 µM
CCc1cccc(C(C)C)c1NC(=O)C(=O)C1C(=O)Nc2ccccc2S1=O (stereo unspecified)	> 100 µM	> 100 µM	> 100 µM	> 100 µM	> 100 µM	> 100 µM	> 100 µM	> 100 µM	> 100 µM	> 100 µM	> 100 µM	> 100 µM
CCOC(=O)c1cc(C2CCN(c3ccccc3)C2=O)c(/C(O)=C/C(C)=O)[nH]1 (stereo unspecified)	> 100 µM	> 100 µM	> 100 µM	> 100 µM	> 100 µM	> 100 µM	> 100 µM	> 100 µM	> 100 µM	> 100 µM	31.9 µM	> 100 µM
Cc1ccc(C)n1-c1ccccc1C1C=Cn2c(=O)nnc3c(OC(C)C)c(OC(C)C)c(O)c1c32 (stereo unspecified)	> 100 µM	> 100 µM	> 100 µM	> 100 µM	> 100 µM	> 100 µM	> 100 µM	> 100 µM	> 100 µM	> 100 µM	> 100 µM	> 100 µM
CC1(C)NC(=O)C(NC(=O)C(N)CC(=O)O)CCCCNC(=O)CCNC1=O (stereo unspecified) (H-DK[Aib][βAla]; lactam 2-C; configuration not given here)	> 100 µM	> 100 µM	> 100 µM	> 100 µM	> 100 µM	> 100 µM	> 100 µM	> 100 µM	> 100 µM	> 100 µM	> 100 µM	> 100 µM
CC1=NN(c2cccc(Cl)c2)C2(SCC(=O)N2c2nc3ccccc3s2)C1=CC=Cc1ccccc1 (stereo unspecified)	47 µM	> 100 µM	91.1 µM	> 100 µM	> 100 µM	68.6 µM	> 100 µM	> 100 µM	> 100 µM	72 µM	> 100 µM	–
CC(=O)Nc1ccc2c3c(cc(O)c2c1)N(C(=O)CCCC(=O)N1CC(CCl)c2c1cc(O)c1cc(NC(C)=O)ccc21)CC3CCl (stereo unspecified)	–	> 100 µM	0.0325 µM	> 100 µM	< 0.01 µM	< 0.01 µM	0.276 µM	0.183 µM	11.6 µM	< 0.01 µM	0.0964 µM	0.0173 µM
CCOC1OC(COC(=O)C(C)(C)C)C(O)CC1n1cc(C)c(=O)[nH]c1=O (stereo unspecified)	> 100 µM	> 100 µM	> 100 µM	> 100 µM	> 100 µM	> 100 µM	> 100 µM	> 100 µM	> 100 µM	> 100 µM	> 100 µM	> 100 µM
CC[C@]12C=CCN3CC[C@@]4(c5cc(N=O)c(OC)cc5N(C)[C@H]4[C@@](O)(C(=O)OC)[C@@H]1OC(C)=O)[C@@H]32	> 100 µM	> 100 µM	> 100 µM	> 100 µM	74.1 µM	> 100 µM	> 100 µM	> 100 µM	> 100 µM	> 100 µM	66.5 µM	> 100 µM
COC(=O)CCC(=O)c1ccc2c(c1)CCC2	> 100 µM	> 100 µM	> 100 µM	> 100 µM	> 100 µM	> 100 µM	> 100 µM	> 100 µM	–	> 100 µM	> 100 µM	–
COc1ccc2c(c1)Cc1c(NCCN(C)C)ccc(C(=O)NCCCN(C)CCCNC(=O)c3ccc(NCCN(C)C)c4c3Nc3ccc(OC)cc3C4)c1N2	1.72 µM	3.95 µM	0.581 µM	0.175 µM	5.49 µM	1.04 µM	0.631 µM	11.9 µM	0.887 µM	0.419 µM	2.24 µM	0.365 µM
CCOC1CN=C(Nc2cccc3ccccc23)S1 (stereo unspecified)	> 10 µM	> 10 µM	> 10 µM	> 10 µM	> 10 µM	> 10 µM	> 10 µM	> 10 µM	> 10 µM	> 10 µM	> 10 µM	> 10 µM
O=c1nc2n3c4c(cccc4nc-2c(=O)[nH]1)CCC3	> 100 µM	> 100 µM	> 100 µM	> 100 µM	> 100 µM	> 100 µM	> 100 µM	> 100 µM	> 100 µM	> 100 µM	> 100 µM	> 100 µM
CC(C)[N+]([O-])(CCCNc1c2ccccc2nc2cccc([N+](=O)[O-])c12)C(C)C	0.0628 µM	0.488 µM	0.168 µM	1.78 µM	1.98 µM	0.133 µM	1.31 µM	6.2 µM	2.53 µM	0.441 µM	0.24 µM	0.356 µM
N#C/C(=C\c1ccc(F)cc1)c1nc(-c2cc3ccccc3oc2=O)cs1	41.6 µM	85 µM	–	> 100 µM	> 100 µM	> 100 µM	> 100 µM	> 100 µM	> 100 µM	33.7 µM	65.9 µM	38.7 µM
O=c1c2cc(-c3ccccc3)cnc2sn1-c1ccc(Br)cc1	–	> 100 µM	> 100 µM	> 100 µM	> 100 µM	> 100 µM	> 100 µM	> 100 µM	> 100 µM	> 100 µM	> 100 µM	> 100 µM
CCOC(=O)c1nc2cc(C(F)(F)F)ccc2nc1Oc1ccc(C#N)cc1	> 100 µM	> 100 µM	–	> 100 µM	> 100 µM	> 100 µM	> 100 µM	> 100 µM	> 100 µM	> 100 µM	> 100 µM	> 100 µM
